Test results taken from US7166296B2, “Pharmaceutical formulations and ligands for use therein; mimetics for UEA-1” (Sarlan, Ltd., priority 2001, dated 2007).
Converted amounts (≈) assume the structure as drawn. Structures can show the parent of a compound that is named as a salt. Non-standard residues stand in square brackets, D forms with d. Residues, ends and D or L forms follow the SMILES beside them. *: point of attachment. Galloyl = O=C(c1cc(O)c(O)c(O)c1)*; Dab = NCC[CH](N)C(=O)O; Dap = NC[C@H](N)C(=O)O

What was measured:
[1] = system: UEA-1 binding sites on Caco-2 cell membrane preparations; assay: Single tier competition assay: inhibition of biotinylated UEA-1 binding, compound and biotinylated UEA-1 incubated together; parameters: species or system human; details: for Avg % Inhibtion / Av % Inhibition: Single Tier Assay; for Avg % Inhibtion: library MSI 26; for Av % Inhibition: library MSI 22
Procedure, shortened: (§1)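 Plates coated with Caco-2 membrane preparation (10 μg/ml, carbonate buffer pH 9.6) and BSA-blocked. Single tier: compound and biotinylated UEA-1 incubated together overnight. Two tier: compound incubated overnight with membranes first, biotinylated UEA-1 added next. Bound UEA-1 detected by streptavidin-HRP/OPD, OD490.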

[2] = system: UEA-1 binding sites on Caco-2 cell membrane preparations; assay: Two tier competition assay: compound incubated alone with membranes, biotinylated UEA-1 added in next step; parameters: species or system human; details: for Avg % Inhibition / Av % Inhibition: Two Tier Assay; for Avg % Inhibition: library MSI 26; for Av % Inhibition: library MSI 22
Procedure, shortened: as §1

[3] = library MSI 27, read-out: Single Tier Assay IC50
[4] = library MSI 27, read-out: Two Tier Assay IC50
[5] = Table 8, galloyl constructs, read-out: IC 50 (uM) 1st tier (converted)
[6] = Table 8, galloyl constructs, read-out: IC 50 (uM) 2nd tier

| SMILES | IC50 [1, 3] [µM] | IC50 [2, 4] [µM] | Single Tier Assay IC50 ([1]; library MSI 27) [µg/mL] | Two Tier Assay IC50 ([2]; library MSI 27) [µg/mL] | IC 50 (ug/ml) 1st tier ([1]; Table 8, galloyl constructs) [µg/mL] | IC50 [1, 5] [µM] | IC 50 (ug/ml) 2nd tier ([2]; Table 8, galloyl constructs) [µg/mL] | IC50 [2, 6] [µM] | other results |
| --- | --- | --- | --- | --- | --- | --- | --- | --- | --- |
| NC(=O)[C@@H](CCCCNC(=O)c1cc(O)cc(O)c1)NC(=O)[C@@H](CCCCNC(=O)c1cc(O)cc(O)c1)NC(=O)[C@@H](CCCCNC(=O)c1cc(O)cc(O)c1)NC(=O)c1cc(O)cc(O)c1 [Cpd 48] | 264 | 264 |  |  |  |  |  |  |  |
| COc1cc(C(=O)NCCCCC(NC(=O)C(CCCCNC(=O)c2cc(OC)c(OC)c(OC)c2)NC(=O)C(CCCCNC(=O)c2cc(OC)c(OC)c(OC)c2)NC(C)=O)C(N)=O)cc(OC)c1OC (centres unmarked) [Cpd 52] | 170 | 221 | 174.80 | 226.70 |  |  |  |  |  |
| NC(=O)C(CCCCNC(=O)C(CCCCNC(=O)c1cc(O)cc(O)c1)NC(=O)c1cc(O)cc(O)c1)NC(=O)C(CCCCNC(=O)c1cc(O)cc(O)c1)NC(=O)c1cc(O)cc(O)c1 (centres unmarked) [Cpd 24] | 265 | 265 |  |  |  |  |  |  |  |
| CC(=O)N[C@H](CCCCNC(=O)c1cc(O)c(O)c(O)c1)C(=O)N[C@H](CCCCNC(=O)c1cc(O)c(O)c(O)c1)C(=O)N[C@H](CCCCNC(=O)c1cc(O)c(O)c(O)c1)C(=O)N[C@H](CCCCNC(=O)c1cc(O)c(O)c(O)c1)C(=O)N[C@H](CCCCNC(=O)c1cc(O)c(O)c(O)c1)C(=O)N[C@H](CCCCNC(=O)c1cc(O)c(O)c(O)c1)C(N)=O [MSI 30 #11] |  |  |  |  | 13 (≈ 7.47 µM) | 7 | 2 (≈ 1.15 µM) | 1 |  |
| COc1cc(C(=O)OCCCN2CCCN(CCCOC(=O)c3cc(OC)c(OC)c(OC)c3)CC2)cc(OC)c1OC [Dilazep dihydrochloride, reference compound] |  |  |  |  |  |  |  |  | Avg % Inhibtion ([1]; 62.5 μg/ml): 14.7%; Avg % Inhibtion ([1]; 250 μg/ml): 10.4%; Avg % Inhibition ([2]; 62.5 μg/ml): −25%; Avg % Inhibition ([2]; 250 μg/ml): −25% |
| CC(=O)NC(CCCCNC(=O)c1ccc(O)cc1)C(N)=O (centres unmarked) [Cpd 15] | 362 | 282 | 111.40 | 86.81 |  |  |  |  |  |
| CCOC(=O)Oc1c(OC)cc(C(=O)NCCCCC(NC(=O)C(CCCCNC(=O)c2cc(OC)c(OC(=O)OCC)c(OC)c2)NC(=O)C(CCCCNC(=O)c2cc(OC)c(OC(=O)OCC)c(OC)c2)NC(C)=O)C(N)=O)cc1OC (centres unmarked) [Cpd 53] | 75.1 | 95.7 | 90.15 | 114.80 |  |  |  |  |  |
| NC(=O)C(CCCCNC(=O)c1cc(O)c(O)c(O)c1)NC(=O)C(CCCCNC(=O)c1cc(O)c(O)c(O)c1)NC(=O)c1cc(O)c(O)c(O)c1 (centres unmarked) [Cpd 30] | 35.5 | 11.5 | 25.89 | 8.36 | 14 (≈ 19.2 µM) | 19 | 5 (≈ 6.85 µM) | 7 |  |
| COc1ccc(C(=O)NCCCCC(NC(=O)c2ccc(OC)c(OC)c2)C(=O)NCCCCC(NC(=O)C(CCCCNC(=O)c2ccc(OC)c(OC)c2)NC(=O)c2ccc(OC)c(OC)c2)C(N)=O)cc1OC (centres unmarked) [Cpd 18] | 105 | 85.3 | 111.30 | 90.21 |  |  |  |  |  |
| NC(=O)C(CCCCNC(=O)c1cc(O)c(O)c(O)c1)NC(=O)C(CCCCNC(=O)c1cc(O)c(O)c(O)c1)NC(=O)C(CCCCNC(=O)c1cc(O)c(O)c(O)c1)NC(=O)c1cc(O)c(O)c(O)c1 (centres unmarked) [Cpd 46] | 14.8 | 1.98 | 14.92 | 2.00 | 8 (≈ 7.92 µM) | 8 | 0.6 (≈ 0.594 µM) | 0.6 |  |
| CC(=O)NC(CCCNC(=O)c1cc(O)c(O)c(O)c1)C(=O)NC(CCCNC(=O)c1cc(O)c(O)c(O)c1)C(=O)NC(CCCNC(=O)c1cc(O)c(O)c(O)c1)C(N)=O (centres unmarked) [MSI 34 #15] |  |  |  |  | 8 (≈ 9.33 µM) | 9 | 2 (≈ 2.33 µM) | 2 |  |
| NC(=O)[C@@H](CCCCNC(=O)c1cc(O)c(O)c(O)c1)NC(=O)[C@@H](CCCCNC(=O)c1cc(O)c(O)c(O)c1)NC(=O)[C@@H](CCCCNC(=O)c1cc(O)c(O)c(O)c1)NC(=O)[C@@H](CCCCNC(=O)c1cc(O)c(O)c(O)c1)NC(=O)[C@@H](CCCCNC(=O)c1cc(O)c(O)c(O)c1)NC(=O)[C@@H](CCCCNC(=O)c1cc(O)c(O)c(O)c1)NC(=O)[C@@H](CCCCNC(=O)c1cc(O)c(O)c(O)c1)NC(=O)c1cc(O)c(O)c(O)c1 [MSI 30 #16] (Galloyl-[dK](Galloyl)[dK](Galloyl)[dK](Galloyl)[dK](Galloyl)[dK](Galloyl)[dK](Galloyl)[dK](Galloyl)-NH2) |  |  |  |  | 19 (≈ 8.92 µM) | 9 | 8 (≈ 3.75 µM) | 4 |  |
| NC(=O)[C@@H](CCCCNC(=O)c1ccc(O)cc1)NC(=O)[C@@H](CCCCNC(=O)c1ccc(O)cc1)NC(=O)[C@@H](CCCCNC(=O)c1ccc(O)cc1)NC(=O)c1ccc(O)cc1 [Cpd 47] | 283 | 283 |  |  |  |  |  |  |  |
| CCOc1ccc(C[C@H](CNC)N(C)C[C@@H](CCCNC(=N)NS(=O)(=O)c2ccc(C)cc2)NC(=O)c2cc(O)c(O)c(O)c2)cc1 [D-Tyr (Et), D-Arg(Tos), Gallic Acid] |  |  |  |  |  |  |  |  | Av % Inhibition ([1]; 62.5 μg/ml): 27.2%; Av % Inhibition ([1]; 250 μg/ml): 48%; Av % Inhibition ([2]; 62.5 μg/ml): 30%; Av % Inhibition ([2]; 250 μg/ml): 61% |
| COc1cc(C(=O)NCCCCC(NC(=O)C(CCCCNC(=O)c2cc(OC)c(O)c(OC)c2)NC(=O)C(CCCCNC(=O)c2cc(OC)c(O)c(OC)c2)NC(=O)c2cc(OC)c(O)c(OC)c2)C(N)=O)cc(OC)c1O (centres unmarked) [Cpd 41] | 80 | 74.2 | 89.77 | 83.26 |  |  |  |  |  |
| NC(=O)C(CCCCNC(=O)c1ccc(O)cc1)NC(=O)C(CCCCNC(=O)c1ccc(O)cc1)NC(=O)c1ccc(O)cc1 (centres unmarked) [Cpd 31] | 395 | 395 |  |  |  |  |  |  |  |
| NC(=O)C(CNC(=O)c1cc(O)c(O)c(O)c1)NC(=O)C(CNC(=O)c1cc(O)c(O)c(O)c1)NC(=O)C(CNC(=O)c1cc(O)c(O)c(O)c1)NC(=O)c1cc(O)c(O)c(O)c1 (centres unmarked) [MSI 34 #17] |  |  |  |  | 1 (≈ 1.13 µM) | 1 | 0.7 (≈ 0.792 µM) | 0.8 |  |
| CC(=O)N[C@@H](CNC(=O)c1cc(O)c(O)c(O)c1)C(=O)N[C@@H](CNC(=O)c1cc(O)c(O)c(O)c1)C(=O)N[C@@H](CNC(=O)c1cc(O)c(O)c(O)c1)C(=O)N[C@@H](CNC(=O)c1cc(O)c(O)c(O)c1)C(N)=O [MSI 34 #21] (Ac-[Dap](Galloyl)[Dap](Galloyl)[Dap](Galloyl)[Dap](Galloyl)-NH2) |  |  |  |  | 2 (≈ 1.98 µM) | 2 | 1 (≈ 0.988 µM) | 1 |  |
| COc1ccc(C(=O)NCCCCC(NC(=O)c2ccc(OC)c(OC)c2)C(N)=O)cc1OC (centres unmarked) [Cpd 2] | 271 | 204 | 128.20 | 96.44 |  |  |  |  |  |
| CC(=O)NC(CCNC(=O)c1cc(O)c(O)c(O)c1)C(=O)NC(CCNC(=O)c1cc(O)c(O)c(O)c1)C(=O)NC(CCNC(=O)c1cc(O)c(O)c(O)c1)C(=O)NC(CCNC(=O)c1cc(O)c(O)c(O)c1)C(N)=O (centres unmarked) [MSI 34 #22] (Ac-[Dab](Galloyl)[Dab](Galloyl)[Dab](Galloyl)[Dab](Galloyl)-NH2; configuration not given here) |  |  |  |  | 3 (≈ 2.81 µM) | 3 | 1 (≈ 0.936 µM) | 1 |  |
| CC(=O)NC(CCCCNC(=O)c1cc(O)cc(O)c1)C(N)=O (centres unmarked) [Cpd 16] | 773 | 335 |  | 108.30 |  |  |  |  |  |
| NC(=O)C(CCCNC(=O)c1cc(O)c(O)c(O)c1)NC(=O)C(CCCNC(=O)c1cc(O)c(O)c(O)c1)NC(=O)C(CCCNC(=O)c1cc(O)c(O)c(O)c1)NC(=O)c1cc(O)c(O)c(O)c1 (centres unmarked) [MSI 34 #19] |  |  |  |  | 11 (≈ 11.4 µM) | 11 | 1 (≈ 1.03 µM) | 1 |  |
| COc1cc(C(=O)NCCCCC(NC(=O)c2cc(OC)c(O)c(OC)c2)C(N)=O)cc(OC)c1O (centres unmarked) [Cpd 1] | 495 | 495 |  |  |  |  |  |  |  |
| COc1cc(C(=O)NCCCC[C@@H](NC(=O)[C@@H](CCCCNC(=O)c2cc(OC)c(OC)c(OC)c2)NC(=O)[C@@H](CCCCNC(=O)c2cc(OC)c(OC)c(OC)c2)NC(=O)c2cc(OC)c(OC)c(OC)c2)C(N)=O)cc(OC)c1OC [Cpd 44] | 212 | 212 |  |  |  |  |  |  |  |
| NC(=O)C(Cc1ccc(NC(=O)C(Cc2ccc(NC(=O)c3cc(O)c(O)c(O)c3)cc2)NC(=O)c2cc(O)c(O)c(O)c2)cc1)NC(=O)C(Cc1ccc(NC(=O)c2cc(O)c(O)c(O)c2)cc1)NC(=O)c1cc(O)c(O)c(O)c1 (centres unmarked) [MSI 34 #8] |  |  |  |  | 4 (≈ 3.6 µM) | 4 | 3 (≈ 2.7 µM) | 2 |  |
| CNC[C@@H](Cc1ccc2ccccc2c1)N(C)C[C@H](Cc1ccc(Cl)cc1)NC(=O)c1cc(O)c(O)c(O)c1 [D-Napala, L-pCl-Phe, Gallic Acid] |  |  |  |  |  |  |  |  | Av % Inhibition ([1]; 62.5 μg/ml): −14.7%; Av % Inhibition ([1]; 250 μg/ml): 7.4%; Av % Inhibition ([2]; 62.5 μg/ml): 23.4%; Av % Inhibition ([2]; 250 μg/ml): 43.3% |
| NC(=O)C(CCCCNC(=O)C(CCCCNC(=O)c1cc(O)c(O)c(O)c1)NC(=O)c1cc(O)c(O)c(O)c1)NC(=O)C(CCCCNC(=O)c1cc(O)c(O)c(O)c1)NC(=O)c1cc(O)c(O)c(O)c1 (centres unmarked) [Cpd 22] | 17.4 | 2.84 | 17.61 | 2.86 | 10 (≈ 9.9 µM) | 10 | 1 (≈ 0.99 µM) | 1 |  |
